Here are results for one molecule from US20220193076A1, “METHODS OF TREATING BREAST CANCER WITH TUCATINIB” (Seagen Inc., priority 2019, published 2022).

SMILES strings stand for the structures. Read-outs that look alike come from different tables or passages of the source.

What all share (assay type): in vitro ADME
One series addresses CYP3A4 (Homo sapiens, UniProt P08684). Description: In vitro time-dependent inhibition of CYP3A4 (background statement).
For the next series, the system named is CYP3A4/5. The series can be described thus: Cytochrome P450 3A4/5 inhibition in human liver microsomes (Example 4). To be noted: both sexes, pooled human liver microsomes. Here is the method:
This in vitro study was designed to evaluate the ability of tucatinib to inhibit the major CYP enzyme CYP3A4/5 in human liver microsomes (using two different substrates) with the aim of ascertaining the potential of tucatinib to inhibit the metabolism of concomitantly administered drugs. The inhibitory potency of tucatinib was determined in vitro by measuring the activity of CYP3A4/5 in human liver microsomes in the presence and absence of tucatinib. […] Metabolism-dependent inhibition was further evaluated to determine how quickly (kinact value) and to what extent (Ki value) tucatinib inactivates CYP3A4/5.
Human liver microsomes from non-transplantable, donated livers were prepared and characterized. A mixed-gender pool of 200 individual human liver microsomal samples was used for this study (Sekisui XenoTech catalog number: H2620, lot number: 1210347).
To measure CYP activity, incubations were conducted at approximately 37° C. in 200 μL incubation mixtures (pH 7.4) containing water, potassium phosphate buffer (50 mM), MgCl2 (3 mM), EDTA (1 mM), an NADPH-regenerating system (always the mixture of the following: NADP [1 mM], glucose 6 phosphate [5 mM], glucose 6 phosphate dehydrogenase [1 Unit/mL]), and marker substrate at the final concentrations indicated.
Aliquots of the stock and/or working solutions of tucatinib were manually added to buffer mixtures described above. Incubation mixtures were prepared in bulk to obviate the need for directly pipetting very small volumes (i.e., 1 μL or less). Incubations containing no tucatinib (0 μM; Solvent Control) contained the solvent used to dissolve tucatinib (i.e., DMSO).
The Tecan liquid handling system conducted all remaining steps for the IC50 and Kl/kinact determinations, with the exception of the centrifugation. For these assays, duplicate aliquots of the buffer mixtures were automatically added to 96-well plates at the appropriate locations. Aliquots of a substrate working solution were added to the 96-well plates prior to initiating reactions. Marker substrate reactions were initiated by the addition of an aliquot of an NADPH-regenerating system and were automatically terminated at approximately 5 min by the addition of the appropriate internal standard and stop reagent, acetonitrile. The samples were centrifuged at 920×g for 10 min at 10° C. The supernatant fractions were analyzed by LC-MS/MS. Standards were similarly prepared with the addition of authentic metabolite standards.
Due to the possibility that tucatinib may bind to microsomal protein or lipids, an attempt was made to design these experiments such that, in as many cases as possible, the microsomal protein, incubation time and buffer concentration were 0.1 mg/mL, 5 min and 50 mM, respectively.
To examine its ability to act as a direct inhibitor of enzymes, tucatinib (at concentrations ranging from 0.01 to 10 μM) was incubated with marker substrate and human liver microsomes. The concentrations of marker substrates were based on the Km or S50 data that were determined previously.
To examine its ability to act as a metabolism-dependent inhibitor of CYP3A4/5 enzymes, tucatinib (at the same concentrations used to evaluate direct inhibition) was preincubated at 37±2° C., in duplicate, with human liver microsomes and an NADPH-regenerating system for approximately 30 min. This preincubation allowed for the generation of intermediates that could inhibit human CYP3A4/5 activity. The preincubations were initiated by the addition of an aliquot of an NADPH-regenerating system. To examine its ability to act as a time-dependent inhibitor of CYP3A4/5 enzymes, additional duplicate samples at all tucatinib concentrations were preincubated for 30 min in the presence of pooled human liver microsomes, but in the absence of NADPH. This preincubation allowed assessment of whether any potential increase in inhibition was dependent upon NADPH (e.g., potentially CYP-mediated). […]
In general terms: Liver microsomes are a subcellular fraction often used to study metabolism.

The target of series [1] is bile salt export pump (BSEP) (Homo sapiens, UniProt O95342). The series can be described thus: In vitro inhibition of BSEP activity.
Chain of bile salt export pump (BSEP) (O95342 whole entry, species assumed): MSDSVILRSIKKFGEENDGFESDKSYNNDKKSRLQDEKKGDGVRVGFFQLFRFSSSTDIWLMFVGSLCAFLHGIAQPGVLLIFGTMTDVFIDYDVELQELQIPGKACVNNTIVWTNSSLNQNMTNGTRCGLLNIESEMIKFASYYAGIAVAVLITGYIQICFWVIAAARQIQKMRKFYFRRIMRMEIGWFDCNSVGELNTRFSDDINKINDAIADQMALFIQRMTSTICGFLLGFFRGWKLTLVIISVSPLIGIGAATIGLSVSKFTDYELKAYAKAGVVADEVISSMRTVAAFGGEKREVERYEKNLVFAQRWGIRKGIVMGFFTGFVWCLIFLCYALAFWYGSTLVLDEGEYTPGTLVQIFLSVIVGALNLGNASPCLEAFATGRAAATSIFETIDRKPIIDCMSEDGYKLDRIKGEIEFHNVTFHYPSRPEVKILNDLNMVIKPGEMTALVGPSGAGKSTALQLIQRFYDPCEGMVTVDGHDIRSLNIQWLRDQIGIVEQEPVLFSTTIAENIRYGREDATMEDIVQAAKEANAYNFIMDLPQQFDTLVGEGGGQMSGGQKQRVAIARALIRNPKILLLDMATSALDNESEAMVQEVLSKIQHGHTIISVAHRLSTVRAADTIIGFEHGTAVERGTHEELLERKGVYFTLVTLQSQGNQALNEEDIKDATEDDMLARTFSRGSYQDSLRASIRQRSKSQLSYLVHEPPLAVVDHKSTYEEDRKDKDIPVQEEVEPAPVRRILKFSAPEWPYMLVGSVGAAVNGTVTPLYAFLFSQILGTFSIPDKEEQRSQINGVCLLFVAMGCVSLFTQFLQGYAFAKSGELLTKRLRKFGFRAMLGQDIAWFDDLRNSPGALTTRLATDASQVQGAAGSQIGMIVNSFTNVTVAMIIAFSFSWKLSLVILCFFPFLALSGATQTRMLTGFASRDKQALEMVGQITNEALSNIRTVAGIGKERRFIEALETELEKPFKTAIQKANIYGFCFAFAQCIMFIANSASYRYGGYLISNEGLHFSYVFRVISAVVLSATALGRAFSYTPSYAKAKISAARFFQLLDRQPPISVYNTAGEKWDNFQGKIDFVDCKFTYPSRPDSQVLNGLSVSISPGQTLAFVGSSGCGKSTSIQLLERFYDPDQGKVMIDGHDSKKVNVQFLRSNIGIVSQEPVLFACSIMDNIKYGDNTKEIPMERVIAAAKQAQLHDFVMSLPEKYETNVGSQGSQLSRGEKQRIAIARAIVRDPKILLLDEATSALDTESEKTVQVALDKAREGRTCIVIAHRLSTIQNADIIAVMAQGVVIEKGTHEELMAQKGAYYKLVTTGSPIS
For a further series, the target named is T1, OCT2 (Homo sapiens, UniProt O15244).
T1 construct: expressed in transfected cells; host or cells: MDCK-II
T1 sequence (O15244 1-555): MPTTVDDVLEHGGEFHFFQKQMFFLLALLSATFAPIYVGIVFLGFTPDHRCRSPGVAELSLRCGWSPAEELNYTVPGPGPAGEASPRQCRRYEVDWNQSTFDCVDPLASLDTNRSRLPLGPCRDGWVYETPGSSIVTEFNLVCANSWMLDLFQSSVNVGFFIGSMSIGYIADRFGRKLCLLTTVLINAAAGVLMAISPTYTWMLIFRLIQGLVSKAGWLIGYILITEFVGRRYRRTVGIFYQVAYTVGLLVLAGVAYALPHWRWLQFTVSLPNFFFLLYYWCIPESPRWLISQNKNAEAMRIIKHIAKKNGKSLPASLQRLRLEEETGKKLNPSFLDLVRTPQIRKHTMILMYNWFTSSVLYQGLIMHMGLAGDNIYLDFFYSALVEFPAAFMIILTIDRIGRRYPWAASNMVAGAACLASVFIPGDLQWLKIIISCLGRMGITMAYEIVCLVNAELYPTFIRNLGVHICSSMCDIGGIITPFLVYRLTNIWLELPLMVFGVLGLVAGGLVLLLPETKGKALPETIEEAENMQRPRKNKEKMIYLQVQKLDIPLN
The series can be described thus: Inhibition of OCT2 mediated transport of creatinine in transfected MDCK-II cells (Example 3). As to conditions: probe substrate creatinine, 0.03 to 10 μM. Here is the method:
Substrate dependent inhibition is common among transporters including MATE1 and MATE2-K. In this study, creatinine was used as the probe substrate to assess the inhibitory potency of Tucatinib and ONT-993. OAT2, OCT2, OCT3, MATE1, and MATE2-K are the renal transporters identified to transport creatinine. Tucatinib and its metabolite ONT-993 were tested as potential inhibitors of OAT2, OCT2, MATE1, and MATE2-K mediated transport using creatinine as a probe substrate.
For this study, MDCK-II were maintained in DMEM with low glucose and 10% FBS. Cells were seeded at 60K±10K cells/well on 96-well, transwell membrane plates approximately 24 hours before transfection. Transport assays were carried out approximately 48 hours after transfection. Cells were transfected and treated to express the transporter of interest or treated with a control vector. The transport of creatinine was determined by radiometric detection.
Net transporter mediated uptake of the substrate by each transporter was calculated as follows: Net Transporter Mediated Substrate Uptake (pmol/min/cm^2)=(Cellular accumulation in the presence of the transporter)−(Mean cellular accumulation in the absence of the transporter.
Percent inhibition was calculated as follows: Percent inhibition=100−(100*(transporter mediated uptake)with inhibition/(transporter mediated uptake)without inhibition) […]

Chain of CYP3A4 (P08684 whole entry): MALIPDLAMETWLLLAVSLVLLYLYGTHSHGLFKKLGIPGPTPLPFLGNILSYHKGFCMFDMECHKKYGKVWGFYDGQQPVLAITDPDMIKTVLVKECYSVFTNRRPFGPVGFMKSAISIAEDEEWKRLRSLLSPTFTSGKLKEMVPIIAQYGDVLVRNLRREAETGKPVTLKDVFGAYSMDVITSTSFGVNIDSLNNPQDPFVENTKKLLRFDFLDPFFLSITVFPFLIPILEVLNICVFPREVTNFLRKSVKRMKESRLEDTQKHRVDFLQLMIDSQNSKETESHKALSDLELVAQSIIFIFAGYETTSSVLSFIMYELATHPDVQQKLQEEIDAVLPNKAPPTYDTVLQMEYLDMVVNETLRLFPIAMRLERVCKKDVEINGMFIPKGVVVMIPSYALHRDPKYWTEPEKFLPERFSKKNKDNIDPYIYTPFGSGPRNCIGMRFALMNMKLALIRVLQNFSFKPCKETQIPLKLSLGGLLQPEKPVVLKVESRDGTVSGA

Take `Cc1cc(Nc2ncnc3ccc(NC4=NC(C)(C)CO4)cc23)ccc1Oc1ccn2ncnc2c1` [tucatinib]: the “Time-dependent inhibition of CYP3A4” value at CYP3A4 is on record as “no time-dependent inhibition”. Further, the kinact/KI with CYP3A4/5 (human, pH 7.4, probe midazolam (1′-hydroxylation), midazolam 1′-hydroxylation, read-out: Efficiency of inactivation (kinact/KI) (converted)) is 350 M⁻¹ s⁻¹. Moreover, the IC50 at 5 min in the series with CYP3A4/5 (human, pH 7.4, probe midazolam (1′-hydroxylation), read-out: IC50, direct inhibition of CYP3A4/5-mediated midazolam 1′-hydroxylation) was 3.3 µM; in the series with CYP3A4/5 (human, pH 7.4, probe testosterone (6β-hydroxylation), read-out: IC50, direct inhibition of CYP3A4/5-mediated testosterone 6p-hydroxylation) it was over 10 µM. The KI (inactivation) in the series on CYP3A4/5 (human, pH 7.4, probe midazolam (1′-hydroxylation), read-out: KI, inactivation of CYP3A4/5-mediated midazolam 1′-hydroxylation, mean±SE) was 0.54 ± 0.25 µM. In addition, in the series on CYP3A4/5 (human, pH 7.4, probe midazolam (1′-hydroxylation), read-out: kinact, inactivation of CYP3A4/5-mediated midazolam 1′-hydroxylation, mean±SE (converted)), the kinact is 0.000183 s⁻¹. Also, in the series with CYP3A4/5 (pH 7.4, probe testosterone (6β-hydroxylation), human liver microsomes, up to 10 μM, read-out: Maximum direct inhibition of CYP3A4/5-mediated testosterone 6p-hydroxylation), the inhibition at 5 min turned out to be 44%. The IC50 in series [1] was 8.48 µM; at OCT2 it was 0.107 ± 0.0379 µM.
